Measurements taken from article PMC7835927, “Natural Polyhydroxy Flavonoids, Curcuminoids, and Synthetic Curcumin Analogs as α7 nAChRs Positive Allosteric Modulators” (International Journal of Molecular Sciences, 2021).
Read-outs that look alike come from different tables or passages of the source. Blank lines part the entries; values can stand above or below the compound they belong to.

Tests used:
human α7 nAChRs = target: T1, human α7 nAChRs (Homo sapiens, UniProt P36544); test: Two-electrode voltage-clamp in Xenopus oocytes expressing human α7 nAChRs: potentiation of ACh-evoked currents; assay type: cell-based; conditions: for % ± s.e. Current Vs. ACh [200 µM]: Table 2; for % ± s.e. Current Vs. ACh [200 µM] / % ± s.e. Current vs. ACh [200 µM]: compound 10 µM co-applied with 200 µM ACh, −80 mV, normalized to ACh alone, 6–10 oocytes; for activity at 10 µM: read-out: % ± s.e. Current vs. ACh [200 µM]; for PAM properties / effect on ACh-induced currents, in words: 10 µM screening; for maximal potentiating effect: concentration-response, co-applied with ACh 200 µM, estimated; for maximal potentiating effect / nH of ACh concentration-response curve / Imax of ACh concentration-response curve: Hill fit; for % ± s.e. Current vs. ACh [200 µM]: Table 1
T1 construct: expressed in transfected cells; host or cells: Xenopus laevis oocytes injected with in vitro transcribed capped cRNA (pSP64T derivatives)
T1 sequence (P36544 23-502): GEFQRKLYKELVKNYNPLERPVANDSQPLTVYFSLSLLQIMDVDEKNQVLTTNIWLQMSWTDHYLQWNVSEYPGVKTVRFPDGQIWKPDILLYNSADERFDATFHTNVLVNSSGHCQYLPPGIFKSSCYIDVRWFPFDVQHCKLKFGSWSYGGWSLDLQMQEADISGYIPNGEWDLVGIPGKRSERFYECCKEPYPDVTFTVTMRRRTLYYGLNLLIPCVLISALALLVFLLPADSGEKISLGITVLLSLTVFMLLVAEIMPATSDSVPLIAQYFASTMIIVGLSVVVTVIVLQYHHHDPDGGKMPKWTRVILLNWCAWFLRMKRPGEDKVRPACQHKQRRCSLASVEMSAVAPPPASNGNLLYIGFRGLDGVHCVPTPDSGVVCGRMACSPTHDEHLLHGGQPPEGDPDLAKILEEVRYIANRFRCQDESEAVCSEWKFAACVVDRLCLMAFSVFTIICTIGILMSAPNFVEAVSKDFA
Experimental: The obtained compounds were screened to determine their capacity to modulate the α7 nAChR activity (Table 2).
All human nAChR cDNAs were cloned in derivatives of the pSP64T vector containing part of the pBluescript polylinker. Capped mRNA was synthesized in vitro using SP6 RNA polymerase, the mMESSAGEmMACHINE kit from Ambion (Thermo Fisher Scientific, Madrid, Spain), and the pSP64T derivatives mentioned above. Defoliculated Xenopus laevis oocytes were injected with 5 ng of each subunit cRNA in 50 nL of sterile water. All experiments were performed within 2–3 days after cRNA injection. […] Barium, instead of calcium, was used as the extracellular divalent cation to avoid the presence of calcium-activated chloride currents. […] All experiments were performed at 22 °C. The holding potential was usually −80 mV. Current records were measured with Clampfit 10.0 (MDS Analytical Technologies, Sunnyvale, CA, USA). […] Data are expressed as mean ± SEM. All chemicals were purchased from Sigma-Aldrich (St. Louis, MO, USA).

[1] = Chemical stability in H2O/acetonitrile 20/80 checked by HPLC; assay type: physicochemical; conditions: period of two months
Description: To discard any possible artefacts due to decomposition of the compounds in solution, the chemical stability of the best compounds 17, 23, and 25 was checked in aqueous mixtures of H2O/acetonitrile 20/80 for a period of two months.

[2] = Solubility as noted in the concentration-response experiments; assay type: physicochemical; conditions: hindered the use of higher concentrations in the curves
Experimental: Figure 1 Characterization of curcumin (12) and two curcuminoids (compounds 13 and 14). (a–c) Ionic currents recorded in representative oocytes expressing human α7 nAChRs. […] All currents were recorded at a holding potential of –80 mV. […] Continuous lines represent the fit to the Hill equation. […] Thus, maximal potentiating effects were estimated as 11 ± 3-, 5.5 ± 0.3-, and 5.5 ± 1.0-fold for compounds 12, 13, and 14, respectively. […] Data were taken from 3–7 oocytes from at least 2 donors.

α7 nAChRs = conditions: cited from earlier work; for reported profile on ACh-evoked α7 nAChR currents in oocytes: oocytes expressing α7 nAChRs
[3] = read-out: EC50 of potentiating effect
[4] = in the presence of compound 13 vs absence

% ± s.e. Current Vs. ACh [200 µM] (human α7 nAChRs): 498 ± 7% | Maximal activation over the control (human α7 nAChRs; already observed at 1 µM, ACh 200 µM): about 3 fold | EC50 (human α7 nAChRs; [3]): 0.44 ± 0.28 µM
Compound: COc1ccc(CCC(=O)/C=C(\O)CCc2ccc(OC)cc2OC)c(OC)c1 [Compound 23, (Z)-1,7-Bis(2,4-dimethoxyphenyl)-5-hydroxyhept-4-en-3-one]
chemical stability in solution (HPLC retention times and purity) [1]: no alteration on the retention times and purity

activity at 10 µM (human α7 nAChRs): 155 ± 5%
Compound: O=c1c(O)c(-c2ccc(O)cc2)oc2cc(O)cc(O)c12 [Compound 6, Kaempferol]

Compound: (1E, 4Z, 6E) -1-(2,4-Dimethoxyphenyl)-7-(2-fluoro-4-methoxyphenyl)-5-hydroxyhepta-1,4,6 -trien-3-one [Compound 22]
PAM properties / effect on ACh-induced currents, in words (human α7 nAChRs; ACh 200 µM): increases them only slightly | % ± s.e. Current Vs. ACh [200 µM] (human α7 nAChRs): 153 ± 17%

activity at 10 µM (human α7 nAChRs): 105 ± 3%
Compound: O=C1C[C@@H](c2ccc(O)cc2)Oc2cc(O)cc(O)c21 [Compound 9, Naringenin]

Compound: O=C1C[C@@H](c2ccc(O)c(O)c2)Oc2cc(O)cc(O)c21 [Compound 8, Eriodictyol]
activity at 10 µM (human α7 nAChRs): 108 ± 2.5%

Compound: COc1cc(/C=C/C(=O)CC(=O)/C=C/c2ccc(O)c(OC)c2)ccc1O [Compound 12, Curcumin]
maximal potentiating effect (human α7 nAChRs): 11 ± 3 fold | enhancement of ACh-induced currents (human α7 nAChRs; maximal effect from concentration-response, only approximated): ~1100% | activity at 10 µM (human α7 nAChRs): 148 ± 43% | EC50 (human α7 nAChRs; [3]): 85 ± 35 µM | solubility, in words [2]: Limited solubility | reported type of α7 nAChR modulation (α7 nAChRs): Type II PAM

Compound: O=c1c(-c2ccc(O)cc2)coc2cc(O)cc(O)c12 [Compound 4, Genistein]
activity at 10 µM (human α7 nAChRs): 154 ± 10% | reported profile on ACh-evoked α7 nAChR currents in oocytes (α7 nAChRs): PAM profile

Compound: O=c1c(O)c(-c2ccc(O)c(O)c2)oc2c(O)c(O)cc(O)c12 [Compound 5, Gossypetin]
activity at 10 µM (human α7 nAChRs): 115 ± 2%

activity at 10 µM (human α7 nAChRs): 107 ± 5.5%
Compound: O=C1c2c(O)cc(O)cc2OC(c2ccc(O)c(O)c2)C1O (stereo not drawn) [Compound 10, Taxifolin]

activity at 10 µM (human α7 nAChRs): 97 ± 6%
Compound: O=c1c(O)c(-c2cc(O)c(O)c(O)c2)oc2cc(O)cc(O)c12 [Compound 7, Myricetin]

Compound: O=c1cc(-c2ccc(O)cc2)oc2cc(O)cc(O)c12 [Compound 1, Apigenin]
activity at 10 µM (human α7 nAChRs): 108 ± 4%

% ± s.e. Current Vs. ACh [200 µM] (human α7 nAChRs): 251 ± 24%
Compound: O=C(/C=C(\O)CCc1ccc(O)cc1O)CCc1ccc(O)cc1O [Compound 25, (Z)-1,7-Bis(2,4-dihydroxyphenyl)-5-hydroxyhept-4-en-3-one]
chemical stability in solution (HPLC retention times and purity) [1]: no alteration on the retention times and purity

Compound: (Z)-1-(2,4-Dimethoxyphenyl)-7-(2,5-dimethoxyphenyl)-5-hydroxyhept-4-en-3-one [Compound 24]
PAM properties / effect on ACh-induced currents, in words (human α7 nAChRs; ACh 200 µM): No significant PAM properties | % ± s.e. Current Vs. ACh [200 µM] (human α7 nAChRs): 53.5 ± 3.5%

Compound: O=c1c(O)c(-c2ccc(O)c(O)c2)oc2cc(O)cc(O)c12 [Compound 2, Quercetin]
% ± s.e. Current vs. ACh [200 µM] (human α7 nAChRs): 130 ± 10% | reported profile on ACh-evoked α7 nAChR currents in oocytes (α7 nAChRs): PAM profile

Compound: O=C(CCc1ccc(O)cc1)c1c(O)cc(O)cc1O [Compound 11, Phloretin]
activity at 10 µM (human α7 nAChRs): 231 ± 0.5%

Compound: COc1ccc(/C=C/C(=O)/C=C(O)/C=C/c2ccc(OC)cc2OC)c(OC)c1 [Compound 17, (1E,4Z,6E)-1,7-Bis(2,4-dimethoxyphenyl)-5-hydroxyhepta-1,4,6-trien-3-one]
chemical stability in solution (HPLC retention times and purity) [1]: no alteration on the retention times and purity

Compound: (1E, 4Z, 6E)-1-(2,4-Dimethoxyphenyl)-7-(2,5-dimethoxyphenyl)-5-hydroxyhepta-1,4,6-trien-3-one [Compound 21]
PAM properties / effect on ACh-induced currents, in words (human α7 nAChRs; ACh 200 µM): No significant PAM properties | % ± s.e. Current Vs. ACh [200 µM] (human α7 nAChRs): 107 ± 4%

Compound: O=C(/C=C/c1ccc(O)cc1)CC(=O)/C=C/c1ccc(O)cc1 [Compound 14, Bisdemethoxycurcumin]
% ± s.e. Current vs. ACh [200 µM] (human α7 nAChRs): 469 ± 42% | maximal potentiating effect (human α7 nAChRs): 5.5 ± 1.0 fold | activity at 10 µM (human α7 nAChRs): 469% | EC50 (human α7 nAChRs; [3]): 6.9 ± 3.1 µM | solubility, in words [2]: Limited solubility

activity at 10 µM (human α7 nAChRs): 125 ± 5.5%
Compound: O=c1cc(-c2ccc(O)c(O)c2)oc2cc(O)cc(O)c12 [Compound 3, Luteolin]

Compound: COc1cc(/C=C/C(O)=C/C(=O)/C=C/c2ccc(O)cc2)ccc1O [Compound 13, Demethoxycurcumin]
EC50 (human α7 nAChRs): 4.9 µM | % ± s.e. Current vs. ACh [200 µM] (human α7 nAChRs): 408 ± 18% | maximal potentiating effect (human α7 nAChRs): 5.5 ± 0.3 fold | nH of ACh concentration-response curve (human α7 nAChRs; in the presence of 3 µM 13): 2.36 | Imax of ACh concentration-response curve (human α7 nAChRs; in the presence of 3 µM 13, normalized to control peak current with 1 mM ACh): 2.70 | increase in apparent efficacy of ACh (human α7 nAChRs; [4]): 2 fold | leftward shift of ACh dose-response curve (human α7 nAChRs; [4]): 3 fold | activity at 10 µM (human α7 nAChRs): 408% | solubility, in words [2]: Limited solubility

Compound: CC(=O)OCC[N+](C)(C)C [ACh, acetylcholine]
nH of ACh concentration-response curve (human α7 nAChRs; control conditions (ACh alone)): 1.25 | Imax of ACh concentration-response curve (human α7 nAChRs; control conditions (ACh alone), normalized to peak current with 1 mM ACh): 1.25
